The text below walks through data of patent US10745382B2 (BRISTOL-MYERS SQUIBB COMPANY, priority 2015, dated 2020).

Like-named read-outs stand apart in the source and are kept apart here.

This test deals with T1, PD-1/PD-L1 (Homo sapiens, UniProt Q9NZQ7).
T1 construct: made in house; host or cells: HEK293T
Nature of the test: PD-1/PD-L1 Homogenous Time-Resolved Fluorescence (HTRF) binding assay. To be noted: PD-L1-His 10 nM, PD-1-Ig 20 nM, read-out: Range or IC50. The method in brief: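 dPBS + 0.1% BSA + 0.05% Tween-20 buffer; Eu-cryptate anti-Ig 1 nM final, APC anti-His 20 nM final; HTRF read. Counter-assays: PD-1-Ig/PD-L2-His 20 & 5 nM, CD80-His/PD-L1-Ig 100 & 10 nM.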

T1 sequence (Q9NZQ7 with tags, fused parts or gaps): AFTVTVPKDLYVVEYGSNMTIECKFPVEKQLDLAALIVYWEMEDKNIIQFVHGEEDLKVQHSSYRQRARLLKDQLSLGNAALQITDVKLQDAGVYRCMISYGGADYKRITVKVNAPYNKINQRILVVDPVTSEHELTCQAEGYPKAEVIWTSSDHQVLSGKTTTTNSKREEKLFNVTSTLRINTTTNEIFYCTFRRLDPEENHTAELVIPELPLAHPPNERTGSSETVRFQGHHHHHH

`Cc1c(COc2cc(OCc3cncc(C#N)c3)c(CN(CCO)CCO)c(C)c2Cl)cccc1-c1cccc(OCCCN2CC[C@@H](O)C2)c1C` [Example 4105, (R)-5-((2-((bis(2-hydroxyethyl)amino)methyl)-4-chloro-5-((3′-(3-(3-hydroxypyrrolidin-1-yl)propoxy)-2,2′-dimethyl-[1,1′-biphenyl]-3-yl)methoxy)-3-methylphenoxy)methyl)nicotinonitrile]: for the setting “value given as range class”, the IC50 lay within 0.21 to 10 nM.

With `Cc1c(COc2cc(OCc3cncc(C#N)c3)c(CN[C@@](C)(CO)C(=O)O)c(C)c2Cl)cccc1-c1cccc(OCCCN2CC[C@@H](O)C2)c1C` [Example 4106, (S)-2-((3-chloro-6-((5-cyanopyridin-3-yl)methoxy)-4-((3′-(3-((R)-3-hydroxypyrrolidin-1-yl)propoxy)-2,2′-dimethyl-[1,1′-biphenyl]-3-yl)methoxy)-2-methylbenzyl)amino)-3-hydroxy-2-methylpropanoic Acid], the concentration for half-maximal inhibition (IC50) (value given as range class) lay within 0.21 to 10 nM.

Take `Cc1c(COc2cc(OCc3cncc(C#N)c3)c(CN(C)C(C)(CO)CO)c(C)c2Cl)cccc1-c1cccc(OCCCN2CC[C@@H](O)C2)c1C` [Example 4107, (R)-5-((4-chloro-2-(((1,3-dihydroxy-2-methylpropan-2-yl)(methyl)amino)methyl)-5-((3′-(3-(3-hydroxypyrrolidin-1-yl)propoxy)-2,2′-dimethyl-[1,1′-biphenyl]-3-yl)methoxy)-3-methylphenoxy)methyl)nicotinonitrile]: the IC50 (value given as range class) fell in the range of 0.21 to 10 nM.

Regarding `Cc1c(COc2cc(OCc3cncc(C#N)c3)c(CN(C)[C@@](C)(CO)C(=O)O)cc2Cl)cccc1-c1cccc(OCCCN2CC[C@@H](O)C2)c1C` [Example 4108, (S)-2-((5-chloro-2-((5-cyanopyridin-3-yl)methoxy)-4-((3′-(3-((R)-3-hydroxypyrrolidin-1-yl)propoxy)-2,2′-dimethyl-[1,1′-biphenyl]-3-yl)methoxy)benzyl)(methyl)amino)-3-hydroxy-2-methylpropanoic Acid], for the setting “value given as range class”, the half-inhibitory concentration (IC50) lay within 0.21 to 10 nM.

Turning to `CCN(Cc1cc(Cl)c(OCc2cccc(-c3cccc(OCCCN4CC[C@@H](O)C4)c3C)c2C)cc1OCc1cncc(C#N)c1)[C@@](C)(CO)C(=O)O` [Example 4109, (S)-2-((5-chloro-2-((5-cyanopyridin-3-yl)methoxy)-4-((3′-(3-((R)-3-hydroxypyrrolidin-1-yl)propoxy)-2,2′-dimethyl-[1,1′-biphenyl]-3-yl)methoxy)benzyl)(ethyl)amino)-3-hydroxy-2-methylpropanoic Acid], the half-inhibitory concentration (IC50) (value given as range class) fell in the range of 0.21 to 10 nM.

`Cc1c(COc2cc(OCc3cncc(C#N)c3)c(CNC3(C(=O)O)CC3)cc2Cl)cccc1-c1cccc(OCCCN2CC[C@@H](O)C2)c1C` [Example 4110, (R)-1-((5-chloro-2-((5-cyanopyridin-3-yl)methoxy)-4-((3′-(3-(3-hydroxypyrrolidin-1-yl)propoxy)-2,2′-dimethyl-[1,1′-biphenyl]-3-yl)methoxy)benzyl)amino)cyclopropane-1-carboxylic Acid]: the half-maximal inhibitory concentration (IC50) (value given as range class) was in the range of 0.21 to 10 nM.

`Cc1c(COc2cc(OCc3cncc(C#N)c3)c(CN(CCO)[C@@](C)(CO)C(=O)O)cc2Cl)cccc1-c1cccc(OCCCN2CC[C@@H](O)C2)c1C` [Example 4111, (S)-2-((5-chloro-2-((5-cyanopyridin-3-yl)methoxy)-4-((3′-(3-((R)-3-hydroxypyrrolidin-1-yl)propoxy)-2,2′-dimethyl-[1,1′-biphenyl]-3-yl)methoxy)benzyl)(2-hydroxyethyl)amino)-3-hydroxy-2-methylpropanoic Acid]: the half-maximal inhibitory concentration (IC50) (value given as range class) fell in the range of 0.21 to 10 nM.

For the compound `Cc1c(COc2cc(OCc3cncc(C#N)c3)c(CN3CCCC[C@H]3C(=O)O)cc2Cl)cccc1-c1cccc(OCCCN2CCC(F)(F)C2)c1C` [Example 4112, (S)-1-(5-chloro-2-((5-cyanopyridin-3-yl)methoxy)-4-((3′-(3-(3,3-difluoropyrrolidin-1-yl)propoxy)-2,2′-dimethyl-[1,1′-biphenyl]-3-yl)methoxy)benzyl)piperidine-2-carboxylic Acid], the IC50 (value given as range class) is 0.21 to 10 nM.

Turning to `Cc1c(COc2cc(OCc3cncc(C#N)c3)c(CN(CCO)CCCO)cc2Cl)cccc1-c1cccc(OCCCN2CCC(F)(F)C2)c1C` [Example 4113], the IC50 (value given as range class) is 0.21 to 10 nM.

As for `Cc1c(COc2cc(OCc3cncc(C#N)c3)c(CN(C)C(C)(CO)CO)cc2Cl)cccc1-c1cccc(OCCCN2CCC(F)(F)C2)c1C` [Example 4114, 5-((4-chloro-5-((3′-(3-(3,3-difluoropyrrolidin-1-yl)propoxy)-2,2′-dimethyl-[1,1′-biphenyl]-3-yl)methoxy)-2-(((1,3-dihydroxy-2-methylpropan-2-yl)(methyl)amino)methyl)phenoxy)methyl)nicotinonitrile], where the note is “value given as range class”, the IC50 fell in the range of 0.21 to 10 nM.

Consider `Cc1c(COc2cc(OCc3cncc(C#N)c3)c(CN(C)[C@@](C)(CO)C(=O)O)cc2Cl)cccc1-c1cccc(OCCCN2CCC(F)(F)C2)c1C` [Example 4115, (S)-2-((5-chloro-2-((5-cyanopyridin-3-yl)methoxy)-4-((3′-(3-(3,3-difluoropyrrolidin-1-yl)propoxy)-2,2′-dimethyl-[1,1′-biphenyl]-3-yl)methoxy)benzyl)(methyl)amino)-3-hydroxy-2-methylpropanoic Acid], for which the IC50 (value given as range class) fell in the range of 0.21 to 10 nM.

Take `Cc1c(COc2cc(OCc3cncc(C#N)c3)c(CNC(CO)CO)cc2Cl)cccc1-c1cccc(OCCCN2CCC(F)(F)C2)c1C` [Example 4116, 5-((4-chloro-5-((3′-(3-(3,3-difluoropyrrolidin-1-yl)propoxy)-2,2′-dimethyl-[1,1′-biphenyl]-3-yl)methoxy)-2-(((1,3-dihydroxypropan-2-yl)amino)methyl)phenoxy)methyl)nicotinonitrile]: the IC50 (value given as range class) was 0.21 to 10 nM.

Regarding `Cc1c(COc2cc(OCc3cncc(C#N)c3)c(CNC(C)(CO)CO)cc2Cl)cccc1-c1cccc(OCCCN2CCC(F)(F)C2)c1C` [Example 4117, 5-((4-chloro-5-((3′-(3-(3,3-difluoropyrrolidin-1-yl)propoxy)-2,2′-dimethyl-[1,1′-biphenyl]-3-yl)methoxy)-2-(((1,3-dihydroxy-2-methylpropan-2-yl)amino)methyl)phenoxy)methyl)nicotinonitrile], the IC50 (value given as range class) was 0.21 to 10 nM.

In the case of `Cc1c(COc2cc(OCc3cncc(C#N)c3)c(CNC(CO)(CO)CO)cc2Cl)cccc1-c1cccc(OCCCN2CCC(F)(F)C2)c1C` [Example 4118, 5-((4-chloro-5-((3′-(3-(3,3-difluoropyrrolidin-1-yl)propoxy)-2,2′-dimethyl-[1,1′-biphenyl]-3-yl)methoxy)-2-(((1,3-dihydroxy-2-(hydroxymethyl)propan-2-yl)amino)methyl)phenoxy)methyl)nicotinonitrile], for the setting “value given as range class”, the IC50 fell in the range of 0.21 to 10 nM.

For the compound `Cc1c(COc2cc(OCc3cncc(C#N)c3)c(CN[C@@](C)(CO)C(=O)O)cc2Cl)cccc1-c1cccc(OCCCN2CCC(F)(F)C2)c1C` [Example 4119, (S)-2-((5-chloro-2-((5-cyanopyridin-3-yl)methoxy)-4-((3′-(3-(3,3-difluoropyrrolidin-1-yl)propoxy)-2,2′-dimethyl-[1,1′-biphenyl]-3-yl)methoxy)benzyl)amino)-3-hydroxy-2-methylpropanoic Acid], where the note is “value given as range class”, the concentration for half-maximal inhibition (IC50) fell in the range of 0.21 to 10 nM.

Regarding `Cc1c(COc2cc(OCc3cncc(C#N)c3)c(CN(C)C(CO)CO)cc2Cl)cccc1-c1cccc(OCCCN2CCC(F)(F)C2)c1C` [Example 4120, 5-((4-chloro-5-((3′-(3-(3,3-difluoropyrrolidin-1-yl)propoxy)-2,2′-dimethyl-[1,1′-biphenyl]-3-yl)methoxy)-2-(((1,3-dihydroxypropan-2-yl)(methyl)amino)methyl)phenoxy)methyl)nicotinonitrile], under “value given as range class”, the concentration for half-maximal inhibition (IC50) was in the range of 0.21 to 10 nM.

With `Cc1c(COc2cc(OCc3cncc(C#N)c3)c(CN(C)C(CO)(CO)CO)cc2Cl)cccc1-c1cccc(OCCCN2CCC(F)(F)C2)c1C` [Example 4121, 5-((4-chloro-5-((3′-(3-(3,3-difluoropyrrolidin-1-yl)propoxy)-2,2′-dimethyl-[1,1′-biphenyl]-3-yl)methoxy)-2-(((1,3-dihydroxy-2-(hydroxymethyl)propan-2-yl)(methyl)amino)methyl)phenoxy)methyl)nicotinonitrile], the IC50 (numeric IC50) turned out to be 0.5 nM.

With `Cc1c(COCCN2CC[C@@H](O)C2)cccc1-c1cccc(COc2cc(OCc3cncc(C#N)c3)c(CNC(CO)CO)cc2Cl)c1C` [Example 4122, (R)-5-((4-chloro-2-(((1,3-dihydroxypropan-2-yl)amino)methyl)-5-((3′-((2-(3-hydroxypyrrolidin-1-yl)ethoxy)methyl)-2,2′-dimethyl-[1,1′-biphenyl]-3-yl)methoxy)phenoxy)methyl)nicotinonitrile], the 50% inhibitory concentration (IC50) (value given as range class) lay in the range of 0.21 to 10 nM.

Turning to `Cc1c(COCCN2CC[C@@H](O)C2)cccc1-c1cccc(COc2cc(OCc3cncc(C#N)c3)c(CN[C@@](C)(CO)C(=O)O)cc2Cl)c1C` [Example 4123, (S)-2-((5-chloro-2-((5-cyanopyridin-3-yl)methoxy)-4-((3′-((2-((R)-3-hydroxypyrrolidin-1-yl)ethoxy)methyl)-2,2′-dimethyl-[1,1′-biphenyl]-3-yl)methoxy)benzyl)amino)-3-hydroxy-2-methylpropanoic Acid], under “value given as range class”, the 50% inhibitory concentration (IC50) was in the range of 0.21 to 10 nM.

Take `Cc1c(COCCN2CC[C@@H](O)C2)cccc1-c1cccc(COc2cc(OCc3cncc(C#N)c3)c(CNC3(C(=O)O)CC3)cc2Cl)c1C` [Example 4124, (R)-1-((5-chloro-2-((5-cyanopyridin-3-yl)methoxy)-4-((3′-((2-(3-hydroxypyrrolidin-1-yl)ethoxy)methyl)-2,2′-dimethyl-[1,1′-biphenyl]-3-yl)methoxy)benzyl)amino)cyclopropane-1-carboxylic Acid]: for the setting “value given as range class”, the IC50 fell in the range of 0.21 to 10 nM.
